# Assays:
# PSSP = experiment: Antimicrobial assay, MIC (NCCLS M7-A5); format: cell-based, Streptococcus pneumonia (penicillin sensitive); conditions: Streptococcus pneumoniae
# Experimental: (§1) Minimum inhibitory concentrations (MICs) were determined according to the National Committee for Clinical Laboratory Standards (NCCLS) susceptibility test guideline M7-A5 (Ferraro, M. 2001 Methods for Dilution Antimicrobial Susceptibility Tests for Bacteria that Grow Aerobically; Approved Standard (NCCLS). National Committee for Clinical Laboratory Standards (NCCLS), Villanova, which is incorporated herein by reference in its entirety). The compound of formula VI was tested in DMSO while the compound of formula VII was tested in aqueous MeOH. The compound of formulae VIII and IX were tested in DMSO.
# [1] = system: Staphylococcus aureus - MRSA; experiment: Antimicrobial assay, MIC (NCCLS M7-A5); format: cell-based, Staphylococcus aureus (methicillin resistant)
# Experimental: as §1
# [2] = system: Staphylococcus aureus - MSSA; experiment: Antimicrobial assay, MIC (NCCLS M7-A5); format: cell-based, Staphylococcus aureus (methicillin sensitive)
# Experimental: as §1
# H. inf. 49247 = experiment: Antimicrobial assay, MIC (NCCLS M7-A5); format: cell-based; conditions: Haemophilus influenzae
# Experimental: as §1
# H. inf. 49766 = experiment: Antimicrobial assay, MIC (NCCLS M7-A5); format: cell-based; conditions: Haemophilus influenzae
# Experimental: as §1
# [3] = system: Gram-negative microorganism Haemophilus influenzae; experiment: Antimicrobial assays, summary for Haemophilus influenzae; format: cell-based
# Experimental: as §1
# [4] = system: Gram-positive microorganisms tested; experiment: Antimicrobial assays, summary for Gram-positive microorganisms; format: cell-based
# Experimental: as §1
# VRE = experiment: Antimicrobial assay, MIC (NCCLS M7-A5); format: cell-based, Enterococcus faecium (vancomycin resistant); conditions: Enterococcus
# Experimental: as §1
# VSE = experiment: Antimicrobial assay, MIC (NCCLS M7-A5); format: cell-based, Enterococcus faecalis (vancomycin sensitive); conditions: Enterococcus faecalis
# Experimental: as §1
# S. epi. 700582 = experiment: Antimicrobial assay, MIC (NCCLS M7-A5); format: cell-based, Staphylococcus epidermis (multiple drug resistant); conditions: Staphylococcus
# Experimental: as §1
# S. epi. 700578 = experiment: Antimicrobial assay, MIC (NCCLS M7-A5); format: cell-based, Staphylococcus epidermis (multiple drug resistant); conditions: Staphylococcus
# Experimental: as §1
# E. c. 25922 = experiment: Antimicrobial assay, MIC (NCCLS M7-A5); format: cell-based
# Experimental: as §1
# E. c. imp = experiment: Antimicrobial assay, MIC (NCCLS M7-A5); format: cell-based
# Experimental: as §1
# Candida albicans = experiment: Antimicrobial assay, MIC (NCCLS M7-A5); format: cell-based
# Experimental: as §1
# E. c. MCR106 = experiment: Antimicrobial assay, MIC (NCCLS M7-A5); format: cell-based
# Experimental: as §1
# PRSP = experiment: Antimicrobial assay, MIC (NCCLS M7-A5); format: cell-based, Streptococcus pneumonia (penicillin resistant); conditions: Streptococcus pneumoniae
# Experimental: as §1
# B16-F10 cells = experiment: Growth inhibition of murine melanoma B16-F10 cells (resazurin fluorescence); format: cell-based
# Experimental: B16-F10 (ATCC; CRL-6475) a murine melanoma cell line was maintained in complete Dulbecco's Modification of Eagle's Medium (DMEM) (DMEM supplemented with 10% (v/v) Fetal bovine serum, 2 mM glutamine, 10 mM HEPES and Penicillin/Streptomycin at 100 IU/ml and 100 μg/ml respectively). The cells were cultured in an incubator at 37° C. in 5% CO2 and 95% humidified air. […] 20 mM stock solutions of formula VI were prepared in 100% DMSO. 10× concentrated serial dilutions of formula VI were prepared in complete media. Ten μl volumes of the serial dilutions were added to the test wells in triplicate resulting in final concentrations ranging from 20 μM to 6.32 nM. The plates were returned to the incubator for 48 hours. The final concentration of DMSO was 0.25% in all samples. Following 48 hours of drug exposure, 10 μl of 0.2 mg/ml resazurin (obtained from Sigma-Aldrich Chemical Co.) in Mg^2+, Ca^2+ free phosphate buffered saline was added to each well and the plates were returned to the incubator for 3-6 hours. Since living cells metabolize Resazurin, the fluorescence of the reduction product of Resazurin was measured using a Fusion microplate fluorometer (Packard Bioscience) with λex=535 nm and λem=590 nm filters. Resazurin dye in medium without cells was used to determine the background, which was subtracted from the data for all experimental wells. […]
compound,measurement,setting,value
CCCCCCC/C(C)=C/C(=O)CC(=N)OC(CCCC)C(=O)O (stereo not shown) [Formula IX],MIC,PSSP; tested in DMSO,> 32 µg/mL
same,MIC,[1]; tested in DMSO,> 32 µg/mL
same,MIC,[2]; tested in DMSO,24 µg/mL
same,MIC,H. inf. 49247; tested in DMSO,> 32 µg/mL
same,MIC,H. inf. 49766; tested in DMSO,> 32 µg/mL
CCCCCC/C(C)=C/C(=O)C=C1NC(=O)C(CCCC)O1 (stereo not shown) [Formula VIII],MIC,PSSP; tested in DMSO,10 µg/mL
same,activity against the Gram-negative microorganism Haemophilus influenzae (statement in words),[3],weakly active
same,anti-bacterial activity versus the Gram-positive microorganisms tested (statement in words),[4],possess anti-bacterial activity
same,MIC,[1]; tested in DMSO,3 µg/mL
same,MIC,[2]; tested in DMSO,4 µg/mL
same,MIC,H. inf. 49247; tested in DMSO,16 µg/mL
same,MIC,H. inf. 49766; tested in DMSO,5 µg/mL
CCCCCCC/C(C)=C/C(=O)C=C1NC(=O)C(CCCCC)O1 (stereo not shown) [Formula VII],MIC,PSSP; tested in aqueous MeOH,8 µg/mL
same,activity against the Gram-negative microorganism Haemophilus influenzae (statement in words),[3],weakly active
same,anti-bacterial activity versus the Gram-positive microorganisms tested (statement in words),[4],possess anti-bacterial activity
same,MIC,VRE; tested in aqueous MeOH,1.5 µg/mL
same,MIC,[1]; tested in aqueous MeOH,1.5 µg/mL
same,MIC,VSE; tested in aqueous MeOH,3 µg/mL
same,MIC,[2]; tested in aqueous MeOH,6 µg/mL
same,MIC,S. epi. 700582; tested in aqueous MeOH,0.75 µg/mL
same,MIC,S. epi. 700578; tested in aqueous MeOH,1.25 µg/mL
same,MIC,E. c. 25922; tested in aqueous MeOH,> 32 µg/mL
same,MIC,H. inf. 49247; tested in aqueous MeOH,12 µg/mL
same,MIC,E. c. imp; tested in aqueous MeOH,> 32 µg/mL
same,MIC,H. inf. 49766; tested in aqueous MeOH,16 µg/mL
same,MIC,Candida albicans; tested in aqueous MeOH,> 32 µg/mL
same,MIC,E. c. MCR106; tested in aqueous MeOH,> 32 µg/mL
same,MIC,PRSP; tested in aqueous MeOH,6 µg/mL
CCCCCCC/C(C)=C/C(=O)C=C1NC(=O)C(CCCC)O1 (stereo not shown) [Formula VI],MIC,PSSP; tested in DMSO,2.58 µg/mL
same,activity against the Gram-negative microorganism Haemophilus influenzae (statement in words),[3],weakly active
same,anti-bacterial activity versus the Gram-positive microorganisms tested (statement in words),[4],possess anti-bacterial activity
same,MIC,VRE; tested in DMSO,1.83 µg/mL
same,MIC,[1]; tested in DMSO,1.04 µg/mL
same,MIC,VSE; tested in DMSO,3.67 µg/mL
same,growth of B16-F10 tumor cells (statement in words),B16-F10 cells,inhibits the growth
same,EC50,"B16-F10 cells; Mus musculus, B16-F10, 48 hours drug exposure, mean ± standard deviation of three independent experiments, read-out: EC50 against B16-F10 cells",6 ± 2.6 µM
same,MIC,[2]; tested in DMSO,0.88 µg/mL
same,MIC,S. epi. 700582; tested in DMSO,0.54 µg/mL
same,MIC,S. epi. 700578; tested in DMSO,0.54 µg/mL
same,MIC,E. c. 25922; tested in DMSO,> 32 µg/mL
same,MIC,H. inf. 49247; tested in DMSO,12 µg/mL
same,MIC,E. c. imp; tested in DMSO,> 32 µg/mL
same,MIC,H. inf. 49766; tested in DMSO,12 µg/mL
same,MIC,Candida albicans; tested in DMSO,> 32 µg/mL
same,MIC,E. c. MCR106; tested in DMSO,> 32 µg/mL
same,MIC,PRSP; tested in DMSO,4.67 µg/mL

# Reference: US7378530B2, “Anti-cancer and anti-microbial 5-membered heterocyclic compounds” (Nereus Pharmaceuticals, Inc., priority 2005, dated 2008)
